Measurements as given in US6589984B1, “Benzofurylpyrone derivatives” (Teijin Limited, priority 1998, dated 2003).

Test system: Human hepatic cancer cells HepG2
Test: TG production inhibiting activity (14C-acetic acid incorporation into TG) in HepG2 cells
Assay type: cell-based
Details: Homo sapiens, HepG2, group criterion
In short: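 HepG2 cells cultured 6 days in eRDF with 10% bovine serum, then in serum-free eRDF given compound (diluted from 20 mM DMSO stock) plus 14C-acetic acid for one day at 37 °C, 5% CO2. Lipids extracted with hexane/isopropanol 2:1 and separated by TLC; the TG spot was cut out and counted by liquid scintillation.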

[1] = alternatives: IC50 at least 10 μM and less than 100 μM, or at least 5% and less than 30% inhibition at 1 μM, or at least 30% and less than 50% inhibition at 10 μM
[2] = alternatives: IC50 less than 10 μM, or at least 30% inhibition at 1 μM, or at least 50% inhibition at 10 μM

IC50 [1] [µM]	IC50 [2] [µM]	Compound
10 to 100	–	Cc1c(-c2cc3cc(OC(C)c4ccccc4C(F)(F)F)ccc3o2)oc(=O)c(C)c1O (stereo not drawn) [Example 144, 3,5-dimethyl-4-hydroxy-6-(5-(1-(2-(trifluoromethyl)phenyl)ethoxy)benzofuran-2-yl)-2H-pyran-2-one]
–	< 10	Cc1c(-c2cc3cc(OCc4ccc(Cl)cc4Cl)ccc3o2)oc(=O)c(C)c1O [Example 153, 6-(5-(2,4-dichlorobenzyloxy)benzofuran-2-yl)-3,5-dimethyl-4-hydroxy-2H-pyran-2-one]
10 to 100	–	Cc1c(-c2cc3cc(OCc4cc(Cl)ccc4Cl)ccc3o2)oc(=O)c(C)c1O [Example 155, 6-(5-(2,5-dichlorobenzyloxy)benzofuran-2-yl)-3,5-dimethyl-4-hydroxy-2H-pyran-2-one]
10 to 100	–	Cc1c(-c2cc3cc(OCc4c(Cl)cccc4Cl)ccc3o2)oc(=O)c(C)c1O [Example 157, 6-(5-(2,6-dichlorobenzyloxy)benzofuran-2-yl)-3,5-dimethyl-4-hydroxy-2H-pyran-2-one]
–	< 10	Cc1c(-c2cc3cc(OCc4ccc(Cl)c(Cl)c4)ccc3o2)oc(=O)c(C)c1O [Example 159, 6-(5-(3,4-dichlorobenzyloxy)benzofuran-2-yl)-3,5-dimethyl-4-hydroxy-2H-pyran-2-one]
–	< 10	Cc1c(-c2cc3ccc(OC4CCCc5ccccc54)cc3o2)oc(=O)c(C)c1O (stereo not drawn) [Example 170, 3,5-dimethyl-4-hydroxy-6-(6-(1,2,3,4-tetrahydronaphthalen-1-yloxy)benzofuran-2-yl)-2H-pyran-2-one]
10 to 100	–	Cc1c(-c2cc3cc(OCc4ccc5ccccc5c4)ccc3o2)oc(=O)c(C)c1O [Example 175, 3,5-dimethyl-4-hydroxy-6-(5-(2-naphthylmethoxy)benzofuran-2-yl)-2H-pyran-2-one]
10 to 100	–	Cc1c(-c2cc3cc(OCC4COc5ccccc5O4)ccc3o2)oc(=O)c(C)c1O (stereo not drawn) [Example 177, 6-(5-(1,4-benzodioxan-2-ylmethoxy)benzofuran-2-yl)-3,5-dimethyl-4-hydroxy-2H-pyran-2-one]
10 to 100	–	CCC=CCCOc1ccc2oc(-c3oc(=O)c(C)c(O)c3C)cc2c1 [Example 179, 3,5-dimethyl-6-(5-(3-hexen-1-yloxy)benzofuran-2-yl)-4-hydroxy-2H-pyran-2-one]
10 to 100	–	CC#CCOc1ccc2oc(-c3oc(=O)c(C)c(O)c3C)cc2c1 [Example 181, 6-(5-(2-butyn-1-yloxy)benzofuran-2-yl)-3,5-dimethyl-4-hydroxy-2H-pyran-2-one]
10 to 100	–	Cc1c(-c2cc3cc(OCC4COC(C)(C)O4)ccc3o2)oc(=O)c(C)c1O (stereo not drawn) [Example 183, 3,5-dimethyl-6-(5-(2,2-dimethyl-1,3-dioxolan-4-ylmethoxy)benzofuran-2-yl)-4-hydroxy-2H-pyran-2-one]
10 to 100	–	CCOCCOc1ccc2oc(-c3oc(=O)c(C)c(O)c3C)cc2c1 [Example 185, 3,5-dimethyl-6-(5-(2-ethoxyethoxy)benzofuran-2-yl)-4-hydroxy-2H-pyran-2-one]
10 to 100	–	Cc1c(-c2cc3cc(OCC4(C)COC4)ccc3o2)oc(=O)c(C)c1O [Example 187, 3,5-dimethyl-4-hydroxy-6-(5-(3-methyloxetan-3-ylmethoxy)benzofuran-2-yl)-2H-pyran-2-one]
10 to 100	–	C=CCCCCOc1ccc2oc(-c3oc(=O)c(C)c(O)c3C)cc2c1 [Example 191, 3,5-dimethyl-6-(5-(5-hexen-1-yloxy)benzofuran-2-yl)-4-hydroxy-2H-pyran-2-one]
10 to 100	–	Cc1c(-c2cc3cc(OCC(c4ccccc4)c4ccccc4)ccc3o2)oc(=O)c(C)c1O [Example 195, 3,5-dimethyl-6-(5-(2,2-diphenylethoxy)benzofuran-2-yl)-4-hydroxy-2H-pyran-2-one]
10 to 100	–	COc1ccc(C(Oc2ccc3oc(-c4oc(=O)c(C)c(O)c4C)cc3c2)c2ccc(OC)cc2)cc1 [Example 201, 6-(5-(bis(4-methoxyphenyl)methoxy)benzofuran-2-yl)-3,5-dimethyl-4-hydroxy-2H-pyran-2-one]
10 to 100	–	Cc1c(-c2cc3cc(OCCCc4ccccc4)ccc3o2)oc(=O)c(C)c1O [Example 203, 3,5-dimethyl-4-hydroxy-6-(5-(3-phenylpropoxy)benzofuran-2-yl)-2H-pyran-2-one]
10 to 100	–	Cc1c(-c2cc3cc(OCC4CCCCC4)ccc3o2)oc(=O)c(C)c1O [Example 207, 6-(5-(cyclohexylmethoxy)benzofuran-2-yl)-3,5-dimethyl-4-hydroxy-2H-pyran-2-one]

IC50 [1] [µM]	IC50 [2] [µM]	Compound
10 to 100	–	Cc1c(-c2cc3cc(OCCOCc4ccccc4)ccc3o2)oc(=O)c(C)c1O [Example 213, 6-(5-(2-(benzyloxy)ethoxy)benzofuran-2-yl)-3,5-dimethyl-4-hydroxy-2H-pyran-2-one]
–	< 10	C#CCOc1ccc2oc(-c3oc(=O)c(C)c(O)c3C)cc2c1 [Example 215, 3,5-dimethyl-4-hydroxy-6-(5-(2-propyn-1-yloxy)benzofuran-2-yl)-2H-pyran-2-one]
10 to 100	–	CCOC(=O)CCCCCOc1ccc2oc(-c3oc(=O)c(C)c(O)c3C)cc2c1 [Example 217, 3,5-dimethyl-6-(5-(5-(ethoxycarbonyl)pentyloxy)benzofuran-2-yl)-4-hydroxy-2H-pyran-2-one]
–	< 10	Cc1c(-c2cc3cc(OCc4cccc(F)c4)ccc3o2)oc(=O)c(C)c1O [Example 226, 3,5-dimethyl-6-(5-(3-fluorobenzyloxy)benzofuran-2-yl)-4-hydroxy-2H-pyran-2-one]
–	< 10	Cc1c(-c2cc3cc(OCc4ccc(F)cc4)ccc3o2)oc(=O)c(C)c1O [Example 228, 3,5-dimethyl-6-(5-(4-fluorobenzyloxy)benzofuran-2-yl)-4-hydroxy-2H-pyran-2-one]
10 to 100	–	Cc1c(-c2cc3cc(OCc4ccccc4[N+](=O)[O-])ccc3o2)oc(=O)c(C)c1O [Example 230, 3,5-dimethyl-4-hydroxy-6-(5-(2-nitrobenzyloxy)benzofuran-2-yl)-2H-pyran-2-one]
–	< 10	COc1cccc(COc2ccc3oc(-c4oc(=O)c(C)c(O)c4C)cc3c2)c1 [Example 236, 3,5-dimethyl-4-hydroxy-6-(5-(3-methoxybenzyloxy)benzofuran-2-yl)-2H-pyran-2-one]
10 to 100	–	Cc1c(-c2cc3cc(OCc4ccccc4Cl)ccc3o2)oc(=O)c(C)c1O [Example 240, 6-(5-(2-chlorobenzyloxy)benzofuran-2-yl)-3,5-dimethyl-4-hydroxy-2H-pyran-2-one]
–	< 10	Cc1c(-c2cc3cc(OCc4cccc(Cl)c4)ccc3o2)oc(=O)c(C)c1O [Example 242, 6-(5-(3-chlorobenzyloxy)benzofuran-2-yl)-3,5-dimethyl-4-hydroxy-2H-pyran-2-one]
–	< 10	Cc1c(-c2cc3cc(OCc4cncs4)ccc3o2)oc(=O)c(C)c1O [Example 243, 3,5-dimethyl-4-hydroxy-6-(5-(5-thiazolylmethoxy)benzofuran-2-yl)-2H-pyran-2-one]
–	< 10	CC(=O)Oc1c(C)c(-c2cc3cc(OCc4sc(Cl)nc4Cl)ccc3o2)oc(=O)c1C [Example 244, 4-acetyloxy-6-(5-(2,4-dichloro-5-thiazolylmethoxy)benzofuran-2-yl)-3,5-dimethyl-2H-pyran-2-one]
–	< 10	Cc1c(-c2cc3cc(OCc4ccsc4)ccc3o2)oc(=O)c(C)c1O [Example 246, 3,5-dimethyl-4-hydroxy-6-(5-(3-thienylmethoxy)benzofuran-2-yl)-2H-pyran-2-one]
–	< 10	Cc1c(-c2cc3cc(OCc4cocn4)ccc3o2)oc(=O)c(C)c1O [Example 249, 3,5-dimethyl-4-hydroxy-6-(5-(4-oxazolylmethoxy)benzofuran-2-yl)-2H-pyran-2-one]
–	< 10	Cc1c(-c2cc3cc(N(C)C(=O)c4ccccc4)ccc3o2)oc(=O)c(C)c1O [Example 250, 6-(5-(N-benzoyl-N-methylamino)benzofuran-2-yl)-3,5-dimethyl-4-hydroxy-2H-pyran-2-one]
–	< 10	Cc1c(-c2cc3cc(N(C)C(=O)Cc4ccccc4)ccc3o2)oc(=O)c(C)c1O [Example 251, 3,5-dimethyl-4-hydroxy-6-(5-(N-methyl-N-(phenylacetyl)amino)benzofuran-2-yl)-2H-pyran-2-one]
–	< 10	Cc1c(-c2cc3cc(N(C)C(=O)c4cccs4)ccc3o2)oc(=O)c(C)c1O [Example 252, 3,5-dimethyl-4-hydroxy-6-(5-(N-methyl-N-(2-thienylcarbonyl)amino)benzofuran-2-yl)-2H-pyran-2-one]
10 to 100	–	Cc1c(-c2cc3cc(N(C)C(=O)c4cccnc4)ccc3o2)oc(=O)c(C)c1O [Example 253, 3,5-dimethyl-4-hydroxy-6-(5-(N-methyl-N-(3-pyridylcarbonyl)amino)benzofuran-2-yl)-2H-pyran-2-one]

Compound	IC50 [1] [µM]	IC50 [2] [µM]
CCCCOc1ccc(COc2ccc3oc(-c4oc(=O)c(C)c(O)c4C)cc3c2)cc1 [Example 163, 6-(5-(4-n-butoxybenzyloxy)benzofuran-2-yl)-3,5-dimethyl-4-hydroxy-2H-pyran-2-one]	–	< 10
Cc1c(-c2cc3cc(OCC4CCCCN4C(=O)OC(C)(C)C)ccc3o2)oc(=O)c(C)c1O (stereo not drawn) [Example 220, 6-(5-(1-t-butoxycarbonylpiperidin-2-ylmethoxy)benzofuran-2-yl)-3,5-dimethyl-4-hydroxy-2H-pyran-2-one]	10 to 100	–
Cc1c(-c2cc3cc(OC4CCN(C(=O)OC(C)(C)C)CC4)ccc3o2)oc(=O)c(C)c1O [Example 222, 6-(5-(1-t-butoxycarbonylpiperidin-4-yloxy)benzofuran-2-yl)-3,5-dimethyl-4-hydroxy-2H-pyran-2-one]	10 to 100	–
Cc1c(-c2cc3cc(OCCCCNC(=O)OC(C)(C)C)ccc3o2)oc(=O)c(C)c1O [Example 224, 6-(5-(4-(t-butoxycarbonylamino)butoxy)benzofuran-2-yl)-3,5-dimethyl-4-hydroxy-2H-pyran-2-one]	10 to 100	–
